Reference: patent US10842892B2, “Methods and apparatus for synthesizing imaging agents, and intermediates thereof” (Lantheus Medical Imaging, Inc., priority 2010, dated 2020)
“And” between values parts separate entries of the source, which are not always exact repeats. Identical values can stand only once.

Tested on: healthy adults
Assay: radiation dosimetry after single injection at rest (OLINDA/EXM, MIRD)
Assay type: in vivo, human
Description: This was a non-randomized, open-label, single-dose study. A total of 13 healthy adult subjects were enrolled and administered a single dose of imaging agent 1 at a single study center in the United States. Subjects were screened within 14 days prior to enrollment to confirm subject eligibility, and began baseline assessments at the study center the day before study drug administration. Subjects remained at the study center until completion of the Study Day 2 safety assessments (24±8 hours post-dose). A telephone call was made to study subjects 48±8 hours post-dose for adverse event (AE) monitoring. All subjects returned to the study center approximately one week (5-7 days) post-dose for a follow-up safety visit, and were contacted by telephone approximately 14-17 days post-dose for final serious AE monitoring.
On day 1, each subject received a 1-3 mL intravenous bolus injection of imaging agent 1 in a sterile solution of ≤5% ethanol containing ≤50 mg/mL sodium ascorbate in water, calculated to deliver approximately the target dose of imaging agent 1 at the time of injection. The dose was administered in less than 10 seconds, followed immediately by a 3-5 mL saline flush.
Dosimetry analyses. Estimates of radiation dosimetry for the standard organs of the adult male and female models and for the, salivary glands as well as the effective dose equivalent (EDE) (International Commission on Radiological Protection (ICRP), Recommendations of the International Commission on Radiological Protection, Publication 26. Ann ICRP. 1977; 1(3)) and the effective dose (ED) (International Commission on Radiological Protection (ICRP), 1990 Recommendations of the International Commission on Radiological Protection, 60. Ann ICRP. 1990; 21(1-3)) were determined using the OLINDA/EXM software (Stabin, M G, Sparks, R B, et al, OLINDA/EXM: the second-generation personal computer software for internal dose assessment in nuclear medicine.” J Nucl Med 2005 46(6):1023-7) Assessment of radiation dosimetry was based on the MIRD method, with data derived from imaging studies, using methods consistent with MIRD Pamphlet no. 16 (Siegel J A, Thomas S R, Stubbs J B, et al. MIRD pamphlet no. 16: Techniques for quantitative radiopharmaceutical biodistribution data acquisition and analysis for use in human radiation dose estimates. J Nucl Med. 1999 February; 40(2):37S-61S).
The attenuation corrected transverse image data slice planes were combined into a single three-dimensional image matrix for each subject and each time point using custom software. These images were then divided into 6 image sets (“anterior”, “posterior”, “salivary”, “thyroid”, “source”, and “full”) of combined coronal plane image data for each subject at each time point, grouping organs with similar anterior to posterior depths. This was done to optimize the ROI creation, and minimize background contribution to the organs contained in each combined coronal plane image. The “anterior” images contained stomach wall, heart wall, and urinary bladder. The “posterior” images contained kidneys, lumbar spine, and spleen (when visible). The “salivary” images contained the salivary glands (parotid and submandibular). The “thyroid” images contained the thyroid. The “full” images combined all of the coronal image planes that contained subject image data and was used for quantification of the brain and liver. The “source” images contained the calibration source.
Absolute radioactivity was determined by normalizing ROI sums by a calibration factor derived from the calibration source. Region counts were also adjusted for activity containing underlying and overlying tissue that was not part of the organ or tissue being quantified by utilization of background regions of interest. Total body region counts were also corrected for off body background counts. Appropriate normalization of region sizes for organ and adjacent regions were made. […]

[1] = N = 12, Void Interval = 3.5 hours

**Q.** Which results are given for `CC(C)(C)n1ncc(OCc2ccc(COCC[18F])cc2)c(Cl)c1=O` [imaging agent 1, 2-t-butyl-4-chloro-5-[4-(2-(^18F)fluoroethoxymethyl)-benzyloxy]-2H-pyridazin-3-1]?
**A.** mean ED (N = 12): 0.072 rem/mCi; mean absorbed dose, heart wall (N = 12): 0.18 rem/mCi; mean absorbed dose, kidneys (critical organ) (N = 12): 0.24 rem/mCi; ED, Mean [1]: 0.019 mSv/MBq and 1.9E−02 mSv/MBq; EDE, Mean [1]: 2.2E−02 mSv/MBq; absorbed dose estimate, Mean, Brain [1]: 2.5E−02 mSv/MBq; absorbed dose estimate, Mean, Breasts [1]: 8.8E−03 mSv/MBq; absorbed dose estimate, Mean, Gallbladder Wall [1]: 1.7E−02 mSv/MBq; absorbed dose estimate, Mean, Heart Wall [1]: 0.048 mSv/MBq and 4.8E−02 mSv/MBq; absorbed dose estimate, Mean, Kidneys [1]: 0.066 mSv/MBq and 6.6E−02 mSv/MBq; absorbed dose estimate, Mean, LLI Wall [1]: 1.2E−02 mSv/MBq; absorbed dose estimate, Mean, Liver [1]: 3.9E−02 mSv/MBq; absorbed dose estimate, Mean, Lungs [1]: 1.1E−02 mSv/MBq; absorbed dose estimate, Mean, Muscle [1]: 1.0E−02 mSv/MBq; absorbed dose estimate, Mean, Osteogenic Cells [1]: 1.9E−02 mSv/MBq; absorbed dose estimate, Mean, Ovaries [1]: 1.2E−02 mSv/MBq; absorbed dose estimate, Mean, Pancreas [1]: 1.6E−02 mSv/MBq; absorbed dose estimate, Mean, Red Marrow [1]: 1.6E−02 mSv/MBq; absorbed dose estimate, Mean, Salivary [1]: 3.5E−02 mSv/MBq; absorbed dose estimate, Mean, Skin [1]: 7.9E−03 mSv/MBq; absorbed dose estimate, Mean, Small Intestine [1]: 1.3E−02 mSv/MBq; absorbed dose estimate, Mean, Spleen [1]: 1.6E−02 mSv/MBq; absorbed dose estimate, Mean, Stomach Wall [1]: 4.0E−02 mSv/MBq; absorbed dose estimate, Mean, Testes [1]: 9.2E−03 mSv/MBq; absorbed dose estimate, Mean, Thymus [1]: 1.1E−02 mSv/MBq; absorbed dose estimate, Mean, Thyroid [1]: 3.2E−02 mSv/MBq; absorbed dose estimate, Mean, Total Body [1]: 1.2E−02 mSv/MBq; absorbed dose estimate, Mean, ULI Wall [1]: 1.3E−02 mSv/MBq; absorbed dose estimate, Mean, Urinary Bladder Wall [1]: 2.3E−02 mSv/MBq; absorbed dose estimate, Mean, Uterus [1]: 1.2E−02 mSv/MBq; maximum injected dose without exceeding 1 rem ED (in vivo): 14 mCi; maximum injected dose without exceeding 10 mSv (1 rem) ED (in vivo): 521 MBq; maximum injected dose without exceeding 50 mSv to the critical organ (kidneys): 770 MBq
